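Results reflect a 48-hour exposure of cells in 96-well plates to compound at five concentrations. GI50 marks 50% less growth. TGI: concentration producing complete growth inhibition.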
Experiments:
Test in all cases: NCI-60 cell line screen, 48 h
[1] = test system: HCT-15 colon
[2] = test system: SNB-19 CNS
[3] = test system: NCI-H460 lung
[4] = test system: UO-31 renal
[5] = test system: HCC-2998 colon
[6] = test system: SNB-75 CNS
[7] = test system: BT-549 breast
[8] = test system: MOLT-4 leukemia
[9] = test system: K-562 leukemia
[10] = test system: SR leukemia
[11] = test system: HOP-92 NSCLC
[12] = test system: EKVX NSCLC
[13] = test system: 786-0 renal
[14] = test system: ACHN renal
[15] = test system: IGROV1 ovarian
[16] = test system: NCI-H522 lung
[17] = test system: TK-10 renal
[18] = test system: OVCAR-8 ovarian
[19] = test system: MDA-MB-231 breast
[20] = test system: OVCAR-4 ovarian
[21] = test system: HL-60(TB) leukemia
[22] = test system: SN12C renal
[23] = test system: SK-MEL-28 melanoma
[24] = test system: A549 NSCLC
[25] = test system: HOP-62 NSCLC
[26] = test system: CCRF-CEM leukemia
[27] = test system: M14 melanoma
[28] = test system: NCI-H23 lung
[29] = test system: T-47D breast
[30] = test system: SF-295 CNS
[31] = test system: LOX IMVI melanoma
[32] = test system: MDA-MB-435
[33] = test system: HS 578T breast
[34] = test system: SK-OV-3 ovarian
[35] = test system: UACC-257 melanoma
[36] = test system: PC-3 prostate
[37] = test system: NCI/ADR-RES ovarian
[38] = test system: SF-539 CNS
[39] = test system: SK-MEL-2 melanoma
[40] = test system: NCI-H226 lung
[41] = test system: A498 renal
[42] = test system: MCF7 breast
[43] = test system: OVCAR-3 ovarian
[44] = test system: DU-145 prostate
[45] = test system: RPMI-8226 leukemia
[46] = test system: RXF 393 renal
[47] = test system: OVCAR-5 ovarian
[48] = test system: CAKI-1 renal
[49] = test system: HT29 colon
[50] = test system: MALME-3M melanoma
[51] = test system: COLO 205 colon
[52] = test system: SK-MEL-5 melanoma
[53] = test system: UACC-62 melanoma
[54] = test system: HCT-116 colon
[55] = test system: U251 CNS
[56] = test system: KM12 colon
[57] = test system: SW-620 colon
[58] = test system: SF-268 CNS

Cc1cc(O)c(C2=NN(c3ccc(S(N)(=O)=O)cc3)C(c3ccccc3Cl)C2)cc1Cl (stereo unspecified)
GI50 [1]: 3690 nM | TGI [1]: 16600 nM | GI50 [2]: 3540 nM | TGI [2]: 16300 nM | GI50 [3]: 2160 nM | TGI [3]: 4210 nM | GI50 [4]: 2660 nM | TGI [4]: 16200 nM | GI50 [5]: 2100 nM | TGI [5]: 3910 nM | GI50 [6]: 2230 nM | TGI [6]: 8830 nM | GI50 [7]: 2160 nM | TGI [7]: 4740 nM | GI50 [8]: 4040 nM | TGI [8]: > 100000 nM | GI50 [9]: 3260 nM | TGI [9]: > 100000 nM | GI50 [10]: 2970 nM | TGI [10]: > 100000 nM | GI50 [11]: 1940 nM | TGI [11]: 6320 nM | GI50 [12]: 1950 nM | TGI [12]: 4600 nM | GI50 [13]: 2250 nM | TGI [13]: 4520 nM | GI50 [14]: 3340 nM | TGI [14]: 11000 nM | GI50 [15]: 2580 nM | TGI [15]: 14000 nM | GI50 [16]: 1890 nM | TGI [16]: 3970 nM | GI50 [17]: 2640 nM | TGI [17]: 5860 nM | GI50 [18]: 2940 nM | TGI [18]: 11200 nM | GI50 [19]: 2140 nM | TGI [19]: 4520 nM | GI50 [20]: 2730 nM | TGI [20]: 8480 nM | GI50 [21]: 3440 nM | TGI [21]: > 100000 nM | GI50 [22]: 2550 nM | TGI [22]: 6320 nM | GI50 [23]: 3390 nM | TGI [23]: 12300 nM | GI50 [24]: 3820 nM | TGI [24]: 19300 nM | GI50 [25]: 2030 nM | TGI [25]: 4160 nM | GI50 [26]: 4810 nM | TGI [26]: > 100000 nM | GI50 [27]: 1850 nM | TGI [27]: 3430 nM | GI50 [28]: 1790 nM | TGI [28]: 3580 nM | GI50 [29]: 2810 nM | TGI [29]: 10300 nM | GI50 [30]: 1590 nM | TGI [30]: 3180 nM | GI50 [31]: 1780 nM | TGI [31]: 3210 nM | GI50 [32]: 1850 nM | TGI [32]: 3920 nM | GI50 [33]: 3280 nM | TGI [33]: > 100000 nM | GI50 [34]: 3630 nM | TGI [34]: 10400 nM | GI50 [35]: 11800 nM | TGI [35]: 79600 nM | GI50 [36]: 1580 nM | TGI [36]: 3320 nM | GI50 [37]: 2700 nM | TGI [37]: 6850 nM | GI50 [38]: 1790 nM | TGI [38]: 3250 nM | GI50 [39]: 11900 nM | TGI [39]: 31000 nM | GI50 [40]: 3020 nM | TGI [40]: 9440 nM | GI50 [41]: 5010 nM | TGI [41]: 20500 nM | GI50 [42]: 1750 nM | TGI [42]: 3330 nM | GI50 [43]: 1890 nM | TGI [43]: 3580 nM | GI50 [44]: 2010 nM | TGI [44]: 3850 nM | GI50 [45]: 2980 nM | TGI [45]: 8350 nM | GI50 [46]: 3090 nM | TGI [46]: 8220 nM | GI50 [47]: 1740 nM | TGI [47]: 3300 nM | GI50 [48]: 1780 nM | TGI [48]: 3990 nM | GI50 [49]: 1920 nM | TGI [49]: 3630 nM | GI50 [50]: 2620 nM | TGI [50]: 6460 nM | GI50 [51]: 1810 nM | TGI [51]: 3310 nM | GI50 [52]: 3850 nM | TGI [52]: 12300 nM | GI50 [53]: 3710 nM | TGI [53]: 14400 nM | GI50 [54]: 1760 nM | TGI [54]: 3150 nM | GI50 [55]: 2250 nM | TGI [55]: 5020 nM

CNCCCn1c2c(c3ccc([N+](=O)[O-])cc3c1=O)C(=O)c1cc(OC)cnc1-2
GI50 [1]: 119 nM | TGI [1]: 714 nM | GI50 [2]: 39.4 nM | TGI [2]: 2070 nM | GI50 [56]: 162 nM | TGI [56]: 593 nM | GI50 [3]: 19.4 nM | TGI [3]: 185 nM | GI50 [4]: 34.1 nM | TGI [4]: 221 nM | GI50 [5]: 204 nM | TGI [5]: 1060 nM | GI50 [6]: 134 nM | TGI [6]: 2460 nM | GI50 [7]: 373 nM | TGI [7]: 2560 nM | GI50 [57]: 34.9 nM | TGI [57]: 1120 nM | GI50 [8]: 30.6 nM | TGI [8]: 293 nM | GI50 [9]: 43.5 nM | TGI [9]: 1530 nM | GI50 [10]: 12.3 nM | TGI [10]: 1750 nM | GI50 [11]: 237 nM | TGI [11]: 2440 nM | GI50 [12]: 273 nM | TGI [12]: 5830 nM | GI50 [13]: 36.2 nM | TGI [13]: 189 nM | GI50 [14]: 36.1 nM | TGI [14]: 149 nM | GI50 [15]: 205 nM | TGI [15]: 2000 nM | GI50 [16]: 83.8 nM | TGI [16]: 464 nM | GI50 [17]: 317 nM | TGI [17]: 1500 nM | GI50 [18]: 86.1 nM | TGI [18]: 1810 nM | GI50 [19]: 265 nM | TGI [19]: 1720 nM | GI50 [20]: 173 nM | TGI [20]: 10100 nM | GI50 [21]: 41.3 nM | TGI [21]: 921 nM | GI50 [22]: 46.1 nM | TGI [22]: 1200 nM | GI50 [23]: 387 nM | TGI [23]: 2100 nM | GI50 [24]: 69.6 nM | TGI [24]: 359 nM | GI50 [25]: 30 nM | TGI [25]: 139 nM | GI50 [26]: 36.5 nM | TGI [26]: 625 nM | GI50 [27]: 39.4 nM | TGI [27]: 358 nM | GI50 [28]: 40 nM | TGI [28]: 267 nM | GI50 [29]: 30.9 nM | TGI [29]: 283 nM | GI50 [30]: 31.9 nM | TGI [30]: 193 nM | GI50 [31]: 25.9 nM | TGI [31]: 136 nM | GI50 [32]: 150 nM | TGI [32]: 1170 nM | GI50 [33]: 1170 nM | TGI [33]: 5270 nM | GI50 [34]: 56.8 nM | TGI [34]: 351 nM | GI50 [35]: 175 nM | TGI [35]: 953 nM | GI50 [36]: 130 nM | TGI [36]: 1880 nM | GI50 [37]: 61.3 nM | TGI [37]: 1080 nM | GI50 [38]: 50.5 nM | TGI [38]: 567 nM | GI50 [39]: 348 nM | TGI [39]: 994 nM | GI50 [40]: 94.6 nM | TGI [40]: 245 nM | GI50 [41]: 33.8 nM | TGI [41]: 276 nM | GI50 [42]: 13.2 nM | TGI [42]: 1060 nM | GI50 [43]: 174 nM | TGI [43]: 617 nM | GI50 [44]: 52 nM | TGI [44]: 1150 nM | GI50 [45]: 76.4 nM | TGI [45]: 527 nM | GI50 [46]: 68.5 nM | TGI [46]: 372 nM | GI50 [58]: 68.5 nM | TGI [58]: 2170 nM | GI50 [47]: 135 nM | TGI [47]: 882 nM | GI50 [48]: 34.6 nM | TGI [48]: 342 nM | GI50 [49]: 55.8 nM | TGI [49]: 380 nM | GI50 [50]: 175 nM | TGI [50]: 923 nM | GI50 [51]: 56.9 nM | TGI [51]: 636 nM | GI50 [52]: 107 nM | TGI [52]: 279 nM | GI50 [53]: 20 nM | TGI [53]: 122 nM | GI50 [54]: 28.3 nM | TGI [54]: 186 nM | GI50 [55]: 36.4 nM | TGI [55]: 251 nM

— PubChem BioAssay (NCI)
